Test results published in paper PMC4557752, “EST-based in silico identification and in vitro test of antimicrobial peptides in Brassica napus” (BMC Genomics, 2015).

Assays:
E. coli ATCC2592 = test: radial diffusion assay against E. coli (G- strain); assay type: cell-based, Escherichia coli; design: G- strain halo diameter: unit not given here; settings: for G- strain halo diameter: radial diffusion, E. coli ATCC2592 approx 2 x 10^6 cfu/mL in 1 % agarose underlay gel, 3.5 mm holes, 100 μL AMP sample, 37 °C 12 h, diameter of clear zone, performed in triplicate, '-' = no zone
Protocol: (§1) Purified His-EDDIE-AMPs inclusion bodies were refolded by rapid 1:50 dilution in an optimized refolding buffer (500 mM NaCl, 20 mM Tris, 2 mM EDTA, 5 % glycerol, 10 mM DTT, 0.01 % Tween-20, pH 7.5) and incubated at an appropriate temperature without stirring. During refolding, EDDIE restored its correct conformation and self-cleaved at the specific sites, releasing AMPs from the fusion bodies. Renatured protein solution was then clarified by centrifugation at 15,000 x g at 4 °C for 30 min. The insoluble sample was removed by filtering through a 0.45 μm membrane, leaving the AMPs in the supernatant. The supernatants were transferred to a Ni-NTA His-bind column for purification.
(§2) The antimicrobial activities of recombinant AMPs were detected using a radial diffusion assay. E. coli ATCC2592 and M. luteus ACCC11001 were grown on the mid-logarithmic phase and washed. Approximately 2 × 10^6 cfu/mL bacteria were incorporated into a thin (1.2 mm) agarose underlay gel containing 1 % (w/v) agarose. Holes with 3.5 mm diameter were punched into the solidified agarose and were filled with 100 μL of AMP sample. After the plates were incubated at 37 °C for 12 h, the diameter of the clear zone surrounding each well was measured to evaluate the antimicrobial activity. The refolding buffer was used as negative controls. The above assays were performed in triplicate.

M. luteus ACCC11001 = test: radial diffusion assay against M. luteus (G+ strain); assay type: cell-based, Micrococcus luteus; design: G+ strain halo diameter: unit not given here; settings: for G+ strain halo diameter: radial diffusion, M. luteus ACCC11001 approx 2 x 10^6 cfu/mL in 1 % agarose underlay gel, 3.5 mm holes, 100 μL AMP sample, 37 °C 12 h, diameter of clear zone, performed in triplicate, '-' = no zone
Protocol: as §1, §2

S. sclerotiorum = test: antifungal radial diffusion assay on potato plates; assay type: cell-based, Sclerotinia sclerotiorum; settings: PDA/potato plates, 200 μL sample beside the fungi, 22 °C 72 h; refolding buffer control
Protocol: as §1
The antifungal activity of the purified products was assayed using an ultra-sensitive radial diffusion method on thin potato plates (200 g potato, 20 g glucose, 15–20 g agar powder, 1 L double-distilled water) seeded with filamentous fungi. Briefly, 9-cm plates were poured with an underlay potato medium, and S. sclerotiorum on a 1-cm diameter potato medium were seeded on the center of the plates, which were then incubated at 22 °C until hypha grew to 2 cm in diameter. Two hundred microliters of the test sample and negative control (refolding buffer) was placed beside the filamentous fungi, and the plates were incubated at 22 °C for 72 h; the size of the clear area around the filamentous fungi was then measured.

Sequence | G- strain halo diameter (E. coli ATCC2592) | G+ strain halo diameter (M. luteus ACCC11001) | growth of the filamentous fungal strain S. sclerotiorum (in words) (S. sclerotiorum) | antimicrobial activity to Gram negative strains (in words) (E. coli ATCC2592; radial diffusion assay, E. coli, refolding buffer as negative control) | antimicrobial activity to Gram positive strains (in words) (M. luteus ACCC11001; radial diffusion assay, M. luteus, refolding buffer as negative control)
AITCGTVTSSLAPCATLSSSGGEMPPPLCGGCAGVKKLNGMAQTTADRQ [Bn7, recombinant B. napus AMP candidate, 49 aa] | 1.311 | – | – | – | –
ALTCGTVNSNVAPCIGYITQGGPLPGACCTG [Bn27, recombinant B. napus AMP candidate, 31 aa] | 1.756 | 2.044 | – | – | –
ALTCGTVNSNVARALAILPRGDRCPERAAPAKAN [Bn26, recombinant B. napus AMP candidate, 34 aa] | 1.533 | 1.489 | – | – | –
AVTCNNVVGDLYPCLSYVMRGGNAPSTNCCNGVRTLNSQAQTTADRQSVCRCIKNA [Bn21, recombinant B. napus AMP candidate, 56 aa] | 1.711 | 1.867 | – | – | –
CAPNHCCSQFGYCGTNDAHCGAGCKS [Bn29, recombinant B. napus AMP candidate] | 1.7 | – | – | – | –
CASGVGCSQYGYCGNGPDYCG [Bn28, recombinant B. napus AMP candidate, 21 aa] | 0.867 | 1.089 | – | – | –
EQCGRQAGGALCPNGLCCSNLAGAAIPNRIANRPVARASVAA [Bn2, recombinant B. napus AMP candidate, 42 aa] | 1.189 | 1.067 | – | – | –
EQCGRRRVERCSRMAVLCEFGWCGDTEPYCKQTGCQSQCGG [Bn3, recombinant B. napus AMP candidate, 41 aa] | 1.867 | 1.811 | – | – | –
GKPSGSEKDKDKKKQPITRSARAGLQFPVGRVHRLLK [Bn5, recombinant B. napus AMP candidate, 37 aa] | 1.711 | 2.2 | – | – | –
GRKAGGPKNKSVSKSIKAGLQFPVGRITRFLKKGRYAQRLGGERREIRLLTKPE [Bn1, recombinant B. napus AMP candidate, 54 aa] | 1.256 | 1.633 | – | – | –
IQCGKFFSCSEINTCCCLFKCGKYYFGWGCCPLEASTCCDDNTSCCP [Bn22, recombinant B. napus AMP candidate] | 0.433 | – | – | – | –
KECEERSRQSRSFSVICKYDYACQNHCINLEKADGGQCNSRSPTAKCICYFQC [Bn8, recombinant B. napus AMP candidate, 53 aa] | 1.656 | 2.056 | – | – | –
KTCCPTTTARRIFDSCYGPSVPLTFCARISGCHLFPQSTTCPPEFP [Bn18, recombinant B. napus AMP candidate, 46 aa] | 1.978 | 0.107 | – | – | –
KTHEEKSKTYRRLCVDETGCNHACIFNEHFAGGHCRHLECFC [Bn17, recombinant B. napus AMP candidate, 42 aa] | 0.467 | 0.178 | – | – | –
LQFPVGRISRYLKKGRYAIRYGAGAP [Bn30, recombinant B. napus AMP candidate, 26 aa] | 1.289 | 1.4 | grow normally | – | –
NICCSQYGYCGTTADYCSPDNNCQSNC [Bn15, recombinant B. napus AMP candidate, 27 aa] | – | 0.944 | – | – | –
NQCGQFVSGALINTCCCLFKCG [Bn23, recombinant B. napus AMP candidate, 22 aa] | 0.756 | 1.233 | – | – | –
NWCGGKCEVRCKDVGMNDRCLKYCGICCKECKC [Bn20, recombinant B. napus AMP candidate, 33 aa] | 1.489 | 1.089 | – | – | –
PPTQNPSMAPPTQNPYGQPMAPPTQNPYGQPMAPP [Bn19, recombinant B. napus AMP, 35 aa; new member of the proline-rich antimicrobial peptide family, similar to SP-B] | 3.011 | 3.022 | – | highest activities | highest activities
QNCGCAPNLCCSQFGYCGSTDAYRDWLP [Bn25, recombinant B. napus AMP candidate, 28 aa] | 1.567 | 0.367 | – | – | –
RCREASRKKVCYRAGGSCCAKCQCVPPGTSGNTASCPCYANLRTHGNKLKCP [Bn4, recombinant B. napus AMP candidate, 52 aa] | 2.122 | 2.167 | – | – | –
RMCETSSQLFNGPCLSTNCANICQNEGFPDGDCKGFRLRCICNRPC [Bn13, recombinant B. napus AMP candidate, 46 aa] | 2.222 | 1.722 | – | – | –
RTCESRSHRFKGPCVSENNCANVCHT [Bn24, recombinant B. napus AMP candidate, 26 aa] | – | 0.967 | – | – | –
RVCNTQSHHYRGPCWRNHNCAMVCRTEGFSGGDCVGIPRRCYCTKRC [Bn16, recombinant B. napus AMP candidate, 47 aa] | – | 1.322 | – | – | –
VVCDKSYTCPDKSTCCCVSESKGKCDSWGCCPFESATCCENGSSCCP [Bn10, recombinant B. napus AMP candidate, 47 aa] | 1.722 | 1.2 | – | – | –
YVCTRVDCSGRCKGRCNKSSRPNLCLRACNSCCFRCNCVPPPGTHGNHHLRPCYASITT [Bn14, recombinant B. napus AMP candidate, 59 aa] | 2.589 | 2.489 | – | – | –
